Reference: patent US12396949B2, “Technology for improving properties of lipid nanoparticles using lipids in which cis-unsaturated bonds are substituted with a silicon atom” (The Regents of the University of California, priority 2022, dated 2025)
Values joined by “and” are separate entries in the source; they are usually repeats but may differ in a detail not shown here. Equal entries are not always repeated.

Columns and labels:
Assay type in all cases: physicochemical
[1] = Liposome size by intensity, dynamic light scattering (silyl-DOTAP liposomes); conditions: for size (size by intensity, average ± standard deviation): three liposome solutions, thin film hydration/bath sonication, all trials; for size (size by intensity, average ± standard deviation) / size by intensity when excluding large aggregate/outlier: 1 mg/mL in Milli Q water; for size (size by intensity, average ± standard deviation) / size by intensity when excluding large aggregate/outlier / large aggregate/outlier in size by intensity distribution of one trial: DLS; for average LNP size compared with DOTAP: comparison in words; for size by intensity when excluding large aggregate/outlier: outlier trial peak excluded; for large aggregate/outlier in size by intensity distribution of one trial: one of three trials
Procedure: (§1) FIGS. 8A, 8B, and 8C show the measured size, zeta potential, and RNA encapsulation efficiency (EE) of lipid nanoparticles (LNPs) containing silyl-DOTAP lipids, compared with traditional DOTAP-derived LNPs. The data in FIG. 8A were obtained from three liposome solutions, whereupon the average size was determined using dynamic light scattering (DLS). The data in FIG. 8B were obtained from three liposome solutions, whereupon the average zeta potential was determined using dynamic light scattering (DLS). The data in FIG. 8C represent RNA encapsulation efficiency, determined for each lipid using the Quant-It RiboGreen fluorescence assay.
(§2) FIGS. 8A, 8B, and 8C provide an analysis of size, zeta potential, and RNA encapsulation efficiency (EE) of lipid nanoparticles (LNPs) composed of silyl-DOTAP lipids, compared with traditional DOTAP-derived LNPs. The data in FIG. 8A were obtained from three liposome solutions (1 mg/mL in Milli Q water) for each lipid, which were formed via thin film hydration/bath sonication and the average size by intensity was determined using dynamic light scattering (DLS). The data in FIG. 8B were obtained from three liposome solutions (1 mg/mL in Milli Q water) for each lipid, which were formed via thin film hydration/bath sonication and the average zeta potential was determined using dynamic light scattering (DLS).
(§3) The values shown are the average standard deviation size by intensity, zeta potential, and RNA EE shown in FIGS. 8A to 8C for each lipid. Footnotes: a: One trial corresponds to one liposome solution (1 mg/ml). […] DOTAP is 198 nm and 8SiPh is 183±65 nm when excluding this large aggregate/outlier.

[2] = test system: RNA standard; test: RNA encapsulation efficiency, Quant-It RiboGreen fluorescence assay; conditions: for RNA EE (RNA encapsulation efficiency): RNA-lipid complex 10:1 wt/wt lipid/RNA, 15 min room temperature, three aliquots; for RNA EE compared with DOTAP: comparison in words
Procedure: as §1
The data in FIG. 8C represent RNA encapsulation efficiency. One RNA-lipid complex solution (10:1 wt/wt lipid/RNA) was formed for each lipid by incubating the silyl liposomes with RNA standard at room temperature for fifteen minutes. The average RNA EE of three aliquots of RNA-lipid complex solution was determined for each lipid using the Quant-It RiboGreen fluorescence assay.
as §3

[3] = Liposome zeta potential, dynamic light scattering (silyl-DOTAP liposomes); conditions: three liposome solutions, 1 mg/mL in Milli Q water, DLS
Procedure: as §1, §2, §3

[4] = Average zeta potential of liposomes made from cationic silyl lipids (Tables 1A, 1B)
Description: (§4) For colloidal dispersions, zeta potential is a useful measurement of the difference in electrokinetic potential between the dispersion medium and the stationary layer of fluid attached to the dispersed particle. The magnitude of the zeta potential indicates the degree of electrostatic repulsion between adjacent, similarly charged particles in a dispersion. A high zeta potential is an indicator of stability (resistance to aggregation). Both zeta potential and size can be determined using a zeta Potential Analyzer. Clogston J D et al., Methods Mol Biol. 2011; 697:63-70.
(§5) FIGS. 5A to 5C and TABLE 1A provide an illustration of such empirical determination: the effect of the length of the lipid tail, the end group, and the positioning of the silyl group. In this illustration, other properties of the lipid structure and liposome composition were kept constant. The liposome formulations just contained the cationic silyl lipids indicated, and Milli Q™ purified water.
(§6) FIGS. 7A to 7C and TABLE 1B provide another illustration of how structure of the silyl lipid can affect properties of nanoparticles.
(§7) Structural features such as tail length, positioning of the silicon group (n1, n2), and branching (as in 8,Si, (8)3-DOTMA) can influence liposome properties.

[5] = Average size of liposomes made from cationic silyl lipids (Tables 1A, 1B); conditions: for Avg size: Table 1B, sila-DOTMA analog liposomes; for Avg. Size: Table 1A, liposome formulations of the cationic silyl lipid only in Milli Q purified water
Description: as §4, §5, §6, §7

[6] = Table 1B, sila-DOTMA analog liposomes, two values given
[7] = Table 1A, liposome formulations of the cationic silyl lipid only in Milli Q purified water

| Structure (SMILES) | size (size by intensity, average ± standard deviation) [1] [nm] | RNA EE (RNA encapsulation efficiency) [2] [%] | zeta (average zeta potential ± standard deviation) [3] | further results |
| --- | --- | --- | --- | --- |
| C[N+](C)(C)CC(COC(=O)CCCC[Si](C)(C)CCc1ccccc1)OC(=O)CCCC[Si](C)(C)CCc1ccccc1 (stereo not shown) [5Si2Ph] | 198 | 55 ± 4 | 76 ± 2 mV | – |
| C[N+](C)(C)CC(COC(=O)CCCC[Si](C)(C)CCCc1ccccc1)OC(=O)CCCC[Si](C)(C)CCCc1ccccc1 (stereo not shown) [5Si3Ph] | 208 ± 19 | 55 ± 3 | 78 ± 3 mV | – |
| CCCCCCCC[Si](C)(C)CCCCC(=O)OCC(C[N+](C)(C)C)OC(=O)CCCC[Si](C)(C)CCCCCCCC (stereo not shown) [5Si8] | 171 ± 26 | 74 ± 6 | 63 ± 14 mV | RNA EE compared with DOTAP [2]: higher EE than DOTAP |
| CCCCCCCCCCC[Si](C)(C)CCCCC(=O)OCC(C[N+](C)(C)C)OC(=O)CCCC[Si](C)(C)CCCCCCCCCCC (stereo not shown) [5Si11] | 225 ± 24 | – | 0 mV and 0 ± 0.05 mV | RNA EE compared with DOTAP [2]: comparable RNA EEs to DOTAP |
| C[N+](C)(C)CC(COC(=O)CCCC[Si](C)(C)C1CCCCC1)OC(=O)CCCC[Si](C)(C)C1CCCCC1 (stereo not shown) [5SiCy] | 169 ± 1 | 85 ± 4 | 88 ± 5 mV | RNA EE compared with DOTAP [2]: higher EE than DOTAP |
| C[N+](C)(C)CC(COC(=O)CCCC[Si](C)(C)c1ccccc1)OC(=O)CCCC[Si](C)(C)c1ccccc1 (stereo not shown) [5SiPh] | 226 ± 75 | 88 ± 9 | 77 ± 6 mV | RNA EE compared with DOTAP [2]: higher EE than DOTAP |
| CCCC[Si](C)(C)CCCCCCOCC(C[N+](C)(C)C)OCCCCCC[Si](C)(C)CCCC (stereo not shown) [6, Si, 4-DOTMA] | – | – | – | Avg. zeta Potential [4, 6]: 65 mV; Avg size [5]: 79 nm |
| CCCCCCCC[Si](C)(C)CCCCCCOCC(C[N+](C)(C)C)OCCCCCC[Si](C)(C)CCCCCCCC (stereo not shown) [6, Si, 8-DOTMA] | – | – | – | Avg. zeta Potential [4, 6]: 64 mV; Avg size [5]: 216 nm |
| CCCC[Si](C)(C)CCCCCC(=O)OCC(C[N+](C)(C)C)OC(=O)CCCCC[Si](C)(C)CCCC (stereo not shown) [6Si4] | 372 ± 93 | 41 ± 6 | 91 ± 9 mV | average LNP size compared with DOTAP [1]: noticeably larger average sizes than DOTAP |
| C[N+](C)(C)CC(COC(=O)CCCCC[Si](C)(C)C1CCCCC1)OC(=O)CCCCC[Si](C)(C)C1CCCCC1 (stereo not shown) [6SiCy] | 188 ± 16 | 23 ± 0.2 | 77 ± 5 mV | – |
| C[N+](C)(C)CC(COC(=O)CCCCC[Si](C)(C)c1ccccc1)OC(=O)CCCCC[Si](C)(C)c1ccccc1 (stereo not shown) [6SiPh] | 448 ± 110 | 76 ± 1 | 81 ± 3 mV | average LNP size compared with DOTAP [1]: noticeably larger average sizes than DOTAP; RNA EE compared with DOTAP [2]: higher EE than DOTAP |
| CCCCCCCCC[Si](C)(C)CCCCCCC(=O)OCC(C[N+](C)(C)C)OC(=O)CCCCCC[Si](C)(C)CCCCCCCCC (stereo not shown) [7Si9] | 221 ± 40 | 59 ± 1 | 73 ± 4 mV | – |
| CCCCCCCC[Si](C)(C)CCCCCCCCOCC(C[N+](C)(C)C)OCCCCCCCC[Si](C)(C)CCCCCCCC (stereo not shown) [8, Si, 8-DOTMA] | – | – | – | Avg. zeta Potential [4, 6]: 56 mV and 74 mV; Avg size [5]: 206 nm |
| CCCCCCCC[Si](CCCCCCCC)(CCCCCCCC)CCCCCCCCOCC(C[N+](C)(C)C)OCCCCCCCC[Si](CCCCCCCC)(CCCCCCCC)CCCCCCCC (stereo not shown) [8, Si, (8)3-DOTMA] | – | – | – | Avg. zeta Potential [4, 6]: 64 mV; Avg size [5]: 184 nm |
| C[N+](C)(C)CC(COCCCCCCCC[Si](C)(C)c1ccccc1)OCCCCCCCC[Si](C)(C)c1ccccc1 (stereo not shown) [8, Si, Ph-DOTMA] | – | – | – | Avg. zeta Potential [4, 6]: 62 mV; Avg size [5]: 215 nm |
| C[N+](C)(C)CC(COC(=O)CCCCCCC[Si](C)(C)CCc1ccccc1)OC(=O)CCCCCCC[Si](C)(C)CCc1ccccc1 (stereo not shown) [8Si2Ph] | 275 ± 82 | 56 ± 10 | 61 ± 12 mV | – |
| C[N+](C)(C)CC(COC(=O)CCCCCCC[Si](C)(C)CCCc1ccccc1)OC(=O)CCCCCCC[Si](C)(C)CCCc1ccccc1 (stereo not shown) [8Si3Ph] | 106 ± 35 | 53 ± 8 | 91 ± 6 mV | – |
| CCCC[Si](C)(C)CCCCCCCC(=O)OCC(C[N+](C)(C)C)OC(=O)CCCCCCC[Si](C)(C)CCCC (stereo not shown) [8Si4] | 198 | 44 ± 7 | 70 ± 2 mV | – |
| CCCCCC[Si](C)(C)CCCCCCCC(=O)OCC(C[N+](C)(C)C)OC(=O)CCCCCCC[Si](C)(C)CCCCCC (stereo not shown) [8Si6] | 164 ± 36 | 48 ± 1 | 84 ± 5 mV | – |
| CCCCCCCC[Si](C)(C)CCCCCCCC(=O)OCC(C[N+](C)(C)C)OC(=O)CCCCCCC[Si](C)(C)CCCCCCCC (stereo not shown) [8Si8] | 221 ± 40 | 50 ± 7 | 73 ± 15 mV | RNA EE compared with DOTAP [2]: comparable RNA EEs to DOTAP |
| C[N+](C)(C)CC(COC(=O)CCCCCCC[Si](C)(C)C1CCCCC1)OC(=O)CCCCCCC[Si](C)(C)C1CCCCC1 (stereo not shown) [8SiCy] | 199 ± 30 | 49 ± 4 | 70 ± 3 mV | – |
| C[N+](C)(C)CC(COC(=O)CCCCCCC[Si](C)(C)c1ccccc1)OC(=O)CCCCCCC[Si](C)(C)c1ccccc1 (stereo not shown) [8SiPh] | 397 ± 322 | 36 ± 5 | 75 ± 6 mV | size by intensity when excluding large aggregate/outlier [1]: 183±65 nm; large aggregate/outlier in size by intensity distribution of one trial [1]: 1406 nm |
| CCCCCC[Si](C)(C)CCCCCCCCCCOCC(C[N+](C)(C)C)OCCCCCCCCCC[Si](C)(C)CCCCCC (stereo not shown) [10, Si, 6-DOTMA] | – | – | – | Avg. zeta Potential [4, 6]: 52 mV; Avg size [5]: 65 nm |
| CCCCCCCC/C=C\CCCCCCCC(=O)OCC(C[N+](C)(C)C)OC(=O)CCCCCCC/C=C\CCCCCCCC.[Cl-] (stereo not shown) [DOTAP, N-(1-(2,3-dioleoyloxy)propyl)-N,N,N-trimethylammonium chloride, reference compound] | 314 ± 201 | 65 ± 2 | 34 ± 5 mV | size by intensity when excluding large aggregate/outlier [1]: 198 nm; large aggregate/outlier in size by intensity distribution of one trial [1]: 838.3 nm |
| CCCC[Si](C)(C)CCCCC(=O)OCC(C[N+](C)(C)C)OC(=O)CCCC[Si](C)(C)CCCC (stereo not shown) [QP5Si4] | – | – | – | Avg. zeta Potential [4, 7]: 65 mV; Avg. Size [5]: 21 nm |
| CCCCCCCC[Si](C)(C)CCCCC(=O)OCC(C[N+](C)(C)C)OC(=O)CCCC[Si](C)(C)CCCCCCCC (stereo not shown) [QP5Si8] | – | – | – | Avg. zeta Potential [4, 7]: 69 mV and 112 mV; Avg. Size [5]: 38 nm |
| CCCCCCCCCCC[Si](C)(C)CCCCC(=O)OCC(C[N+](C)(C)C)OC(=O)CCCC[Si](C)(C)CCCCCCCCCCC (stereo not shown) [QP5Si11] | – | – | – | Avg. zeta Potential [4, 7]: 60 mV; Avg. Size [5]: 59 nm |
| C[N+](C)(C)CC(COC(=O)CCCC[Si](C)(C)C1CCCCC1)OC(=O)CCCC[Si](C)(C)C1CCCCC1 (stereo not shown) [QP5SiCy] | – | – | – | Avg. zeta Potential [4, 7]: 71 mV and 124 mV; Avg. Size [5]: 80 nm |
